The target in the assay is T1, Stearoyl-CoA desaturase (Homo sapiens, UniProt O00767).
T1 sequence (O00767 whole entry): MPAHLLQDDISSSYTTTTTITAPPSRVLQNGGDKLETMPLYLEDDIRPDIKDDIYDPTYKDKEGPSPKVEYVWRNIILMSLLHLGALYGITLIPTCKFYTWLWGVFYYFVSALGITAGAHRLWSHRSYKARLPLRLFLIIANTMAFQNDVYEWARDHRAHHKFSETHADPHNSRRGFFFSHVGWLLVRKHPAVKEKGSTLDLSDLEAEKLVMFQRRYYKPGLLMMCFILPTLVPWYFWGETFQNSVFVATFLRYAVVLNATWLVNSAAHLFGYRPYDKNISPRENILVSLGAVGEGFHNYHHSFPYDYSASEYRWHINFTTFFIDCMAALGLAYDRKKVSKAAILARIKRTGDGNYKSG
As to the kind of experiment: Enzyme Activity Assay: The potency of compounds of formula I against the stearoyl-CoA desaturase was determined by measuring the conversion of radiolabeled stearoyl-CoA to oleoyl-CoA using rat liver microsome or human SCD1 following previously published procedures with some modifications (Joshi, et al., J. Lipid Res., 18: 32-36 (1977); Talamo, et al., Anal. Biochem, 29: 300-304 (1969)). Liver microsome was prepared from male Wistar or Sprague Dawley rats on a high carbohydrate diet for 3 days (LabDiet #5803, Purina). The livers were homogenized (1:10 w/v) in a buffer containing 250 mM sucrose, 1 mM EDTA, 5 mM DTT and 50 mM Tris-HCl (pH 7.5). After a 100,000xg centrifugation for 60 min, the liver microsome pellet was suspended in a buffer containing 100 mM sodium phosphate, 20% glycerol, 2 mM DTT, and stored at -78° C. Human SCD1 desaturase system was reconstituted using human SCD1 from a baculovirus/Sf9 expression system, cytochrome B5 and cytochrome B5 reductase. The class given is microsomes. (Microsomes from liver hold many membrane-bound enzymes, among them those of drug oxidation.)

For orientation: IC50 means the point on the concentration scale where inhibition reaches its midpoint. A high value points to a need for much substance.

`O=C(O)Cn1nnc(-c2cnc(N3CCC4(CC3)CC(=O)c3c(Cl)cccc3O4)s2)n1` registered an IC50 of 12 nM. For the compound `O=C(O)Cn1nnc(-c2nnc(N3CCC4(CC3)CC(=O)c3c(Cl)cccc3O4)s2)n1`, half-maximal inhibition (IC50) required 24 nM.

With `O=C(O)Cn1nnc(-c2cc(N3CCC4(CC3)CC(=O)c3c(Cl)cccc3O4)no2)n1`, the IC50 turned out to be 17 nM.

Source of the values: ChEMBL document CHEMBL3886309, “Spiro compounds useful as inhibitors of stearoyl-coenzyme A delta-9 desaturase” (2015).
